Measurements taken from ChEMBL document CHEMBL3616477, “In vivo evaluation of isolated triterpenes and semi-synthetic derivatives as antimalarial agents” (2015).

Tests used:
[1] = tested on: Plasmodium berghei; assay: Antimalarial activity against Plasmodium berghei NK65 infected in BALB/c mouse assessed as inhibition of parasitemia at 25 mg/kg, po qd for 4 days measured on 7th day after parasite inoculation by Giemsa staining based microscopy relative to control; type: functional; conditions: 96 h
[2] = tested on: Plasmodium berghei; assay: Antimalarial activity against Plasmodium berghei NK65 infected in BALB/c mouse assessed as mean survival time at 25 mg/kg, sc qd for 4 days (reference value: 23 +/- 4 days); type: functional
[3] = tested on: Plasmodium berghei; assay: Antimalarial activity against Plasmodium berghei NK65 infected in BALB/c mouse assessed as inhibition of parasitemia at 50 mg/kg, po qd for 4 days measured on 5th day after parasite inoculation by Giemsa staining based microscopy relative to control; type: functional; conditions: 96 h
[4] = tested on: Plasmodium berghei; assay: Antimalarial activity against Plasmodium berghei NK65 infected in BALB/c mouse assessed as inhibition of parasitemia at 50 mg/kg, sc qd for 4 days measured on 5th day after parasite inoculation by Giemsa staining based microscopy relative to control; type: functional; conditions: 96 h
[5] = tested on: Plasmodium berghei; assay: Antimalarial activity against Plasmodium berghei NK65 infected in BALB/c mouse assessed as inhibition of parasitemia at 50 mg/kg, po qd for 4 days measured on 7th day after parasite inoculation by Giemsa staining based microscopy relative to control; type: functional; conditions: 96 h
[6] = tested on: Plasmodium berghei; assay: Antimalarial activity against Plasmodium berghei NK65 infected in BALB/c mouse assessed as mean survival time at 50 mg/kg, po qd for 4 days (reference value: 22 +/- 3 days); type: functional
[7] = tested on: Plasmodium berghei; assay: Antimalarial activity against Plasmodium berghei NK65 infected in BALB/c mouse assessed as mean survival time at 50 mg/kg, sc qd for 4 days (reference value: 23 +/- 4 days); type: functional
[8] = tested on: Plasmodium berghei; assay: Antimalarial activity against Plasmodium berghei NK65 infected in BALB/c mouse assessed as inhibition of parasitemia at 25 mg/kg, sc qd for 4 days measured on 7th day after parasite inoculation by Giemsa staining based microscopy relative to control; type: functional; conditions: 96 h
[9] = tested on: Plasmodium berghei; assay: Antimalarial activity against Plasmodium berghei NK65 infected in BALB/c mouse assessed as inhibition of parasitemia at 25 mg/kg, po qd for 4 days measured on 5th day after parasite inoculation by Giemsa staining based microscopy relative to control; type: functional; conditions: 96 h
[10] = tested on: Plasmodium berghei; assay: Antimalarial activity against Plasmodium berghei NK65 infected in BALB/c mouse assessed as inhibition of parasitemia at 25 mg/kg, sc qd for 4 days measured on 5th day after parasite inoculation by Giemsa staining based microscopy relative to control; type: functional; conditions: 96 h
[11] = tested on: Plasmodium berghei; assay: Antimalarial activity against Plasmodium berghei NK65 infected in BALB/c mouse assessed as mean survival time at 25 mg/kg, po qd for 4 days (reference value: 22 +/- 3 days); type: functional
[12] = tested on: Plasmodium berghei; assay: Antimalarial activity against Plasmodium berghei NK65 infected in BALB/c mouse assessed as inhibition of parasitemia at 50 mg/kg, sc qd for 4 days measured on 7th day after parasite inoculation by Giemsa staining based microscopy relative to control; type: functional; conditions: 96 h
[13] = tested on: Plasmodium berghei; assay: Antimalarial activity against Plasmodium berghei NK65 infected in BALB/c mouse assessed as inhibition of parasitemia at 5 mg/kg, sc qd for 4 days measured on 7th day after parasite inoculation by Giemsa staining based microscopy relative to control; type: functional; conditions: 96 h
[14] = tested on: Plasmodium berghei; assay: Antimalarial activity against Plasmodium berghei NK65 infected in BALB/c mouse assessed as mean survival time at 5 mg/kg, po qd for 4 days (reference value: 22 +/- 3 days); type: functional
[15] = tested on: Plasmodium berghei; assay: Antimalarial activity against Plasmodium berghei NK65 infected in BALB/c mouse assessed as inhibition of parasitemia at 5 mg/kg, po qd for 4 days measured on 7th day after parasite inoculation by Giemsa staining based microscopy relative to control; type: functional; conditions: 96 h
[16] = tested on: Plasmodium berghei; assay: Antimalarial activity against Plasmodium berghei NK65 infected in BALB/c mouse assessed as inhibition of parasitemia at 5 mg/kg, sc qd for 4 days measured on 5th day after parasite inoculation by Giemsa staining based microscopy relative to control; type: functional; conditions: 96 h
[17] = tested on: Plasmodium berghei; assay: animal or person; conditions: NK65, in Mus musculus, po, 96 h, read-out: INH
Description: Antimalarial activity against Plasmodium berghei NK65 infected in BALB/c mouse assessed as inhibition of parasitemia at 5 mg/kg, po qd for 4 days measured on 5th day after parasite inoculation by Giemsa staining based microscopy relative to control

[18] = tested on: Plasmodium berghei; assay: Antimalarial activity against Plasmodium berghei NK65 infected in BALB/c mouse assessed as mean survival time at 5 mg/kg, sc qd for 4 days (reference value: 23 +/- 4 days); type: functional; conditions: 96 h

| Compound | inhibition in vivo at 25 mg/kg [1] | MST [2] | inhibition in vivo at 50 mg/kg [3] | inhibition in vivo at 50 mg/kg [4] | inhibition in vivo at 50 mg/kg [5] | MST [6] | MST [7] | inhibition in vivo at 25 mg/kg [8] | inhibition in vivo at 25 mg/kg [9] | inhibition in vivo at 25 mg/kg [10] | MST [11] | inhibition in vivo at 50 mg/kg [12] | inhibition in vivo at 5 mg/kg [13] | mean survival time at 5 mg/kg [14] | inhibition in vivo at 5 mg/kg [15] | inhibition in vivo at 5 mg/kg [16] | inhibition in vivo at 5 mg/kg [17] | mean survival time at 5 mg/kg [18] |
| --- | --- | --- | --- | --- | --- | --- | --- | --- | --- | --- | --- | --- | --- | --- | --- | --- | --- | --- |
| CCC(=O)O[C@H]1CC[C@@H]2C(=C[C@H](OC)[C@@H]3[C@@]2(C)CC[C@]2(C)[C@@H]([C@H](C)C[C@H](C=C(C)C)OC(=O)CC)CC[C@@]32C)C1(C)C [KARAVOATE D] | 0% | 22 days | 45.5% | 42.5% | 11.5% | 24 days | 24 days | 0% | 12.3% | 11.9% | 23 days | 10.5% |  |  |  |  |  |  |
| CC(C)=C[C@H](O)C[C@@H](C)[C@H]1CC[C@@]2(C)[C@@H]3[C@@H](O[C@@H]4O[C@H](CO)[C@@H](O)[C@@H](O)[C@H]4O)C=C4[C@@H](CC[C@H](O)C4(C)C)[C@]3(C)CC[C@]12C [BALSAMINOSIDE B] | 0% | 20 days | 36.2% | 37.1% | 8.6% | 23 days | 21 days | 0% | 23.9% | 12.5% | 21 days | 5.5% |  |  |  |  |  |  |
| CCN(CC)CCCC(C)Nc1ccnc2cc(Cl)ccc12 (centres undefined) [CHLOROQUINE] |  |  |  |  |  |  |  |  |  |  |  |  | 99% | > 40 days | 98% | 99% | 100% | > 40 days |
| CO[C@H]1C=C2[C@@H](CC[C@H](OC(C)=O)C2(C)C)[C@]2(C)CC[C@]3(C)[C@@H]([C@H](C)C[C@H](C=C(C)C)OC(C)=O)CC[C@@]3(C)[C@H]12 [KARAVOATE B] | 13.2% | 20 days | 58.1% | 55.2% | 25.6% | 23 days | 24 days | 10.1% | 41.8% | 39.2% | 21 days | 28.4% |  |  |  |  |  |  |
| CO[C@H]1C=C2[C@@H](CC[C@H](O)C2(C)C)[C@]2(C)CC[C@]3(C)[C@@H]([C@H](C)C[C@@H](O)C=C(C)C)CC[C@@]3(C)[C@H]12 [KARAVELAGENIN C] | 0% | 23 days | 33.1% | 18.6% | 3.4% | 22 days | 22 days | 0% | 22.7% | 21.3% | 21 days | 1% |  |  |  |  |  |  |
